# Experiments:
# Format in all cases: physicochemical
# [1] = Specific Gravity of PVC compounds (ASTM D-792)
# [2] = Hardness (Shore) of PVC compounds (ASTM D-2240)
# [3] = Tensile, 100% modulus, elongation of PVC compounds (ASTM D-638); design: 100% Modulus: unit not given here
# [4] = Brittle Point (ASTM D-746)
# [5] = Oven Stability (210° C.) (ASTM D-1203)
# [6] = Dynamic Heat Stability (ASTM D-2538)
# [7] = Loop Spew compatibility test (ASTM D-3291)
# Method: This plasticizer was evaluated in the same formulations as test compounds 1, 2, 3 along with DEHP and Example 1.
# PVC compounds were prepared with the plasticizers described in Example 1 and Example 2, and a commercial sample of DEHP, containing standard heat stabilizers, antioxidant and a lubricant. The compounds were evaluated in standard laboratory tests according the following ASTM methods: […]
# [8] = % Volatile Loss (ASTM D-1203)
# [9] = Gamma irradiation stability (yellowness index YI)
# Source text: Additional advantages of the compounds of the invention are their low cytotoxicity and resistance to gamma radiation especially when compared to the industry standard of di-2-ethylhexyl phthalate (DEHP). Gamma radiation stability is important since it allows for the convenient sterilization of articles prepared from PVC compound. The key performance standard is non-yellowing of the PVC compound after exposure to gamma radiation. An example of the improvement in gamma stability is shown below.
# [10] = PVC Test Compound 59-67 A Gauge
# [11] = PVC Test Compound 59-67 A Gauge, DEHP vs Example 1/ESO series
# [12] = PVC Test Compound 80-85 C Gauge
# [13] = PVC Test Compound 80-85 C Gauge, DEHP vs Example 1/ESO series
# [14] = PVC Test Compound 81-85 A Gauge
# [15] = PVC Test Compound-Gamma Irradiation Stability-A
# [16] = Gamma Radiation = 35 kGys (3.5 Mrads)
# [17] = Gamma Radiation = 35 kGys (3.5 Mrads), oven aging 48 hr. at 50° C.
smiles,measurement,setting,value
"CCCCC(CC)COC(=O)c1ccccc1C(=O)OCC(CC)CCCC (stereo not shown) [DEHP, di-(2-ethylhexyl) phthalate]",Specific Gravity,[1]; [10],1.16
same,Specific Gravity,[1]; [11],1.16
same,Specific Gravity,[1]; [12],1.28
same,Specific Gravity,[1]; [13],1.28
same,Specific Gravity,[1]; [14],1.23
same,Specific Gravity,[1]; [15],1.24
same,Hardness Shore A (15 sec delay),[2]; [10],60
same,Hardness Shore A (instant),[2]; [10],68
same,Hardness Shore A (15 sec delay),[2]; [11],56
same,Hardness Shore A (instant),[2]; [11],60
same,Hardness Shore C (10 sec delay),[2]; [12],85
same,Hardness Shore C (instant),[2]; [12],93
same,Hardness Shore C (10 sec delay),[2]; [13],85
same,Hardness Shore C (instant),[2]; [13],90
same,Hardness Shore C (10 sec delay),[2]; [14],83
same,Hardness Shore C (instant),[2]; [14],90
same,Hardness Shore A (15 sec delay),[2]; [15],86
same,Hardness Shore A (instant),[2]; [15],91
same,100% Modulus,[3]; [10],554
same,% Elongation,[3]; [10],439%
same,Tensile (psi),[3]; [10],1559 psi
same,100% Modulus,[3]; [11],518
same,% Elongation,[3]; [11],451%
same,Tensile (psi),[3]; [11],1564 psi
same,100% Modulus,[3]; [12],3440
same,% Elongation,[3]; [12],281%
same,Tensile (psi),[3]; [12],3840 psi
same,100% Modulus,[3]; [13],3617
same,% Elongation,[3]; [13],282%
same,Tensile (psi),[3]; [13],4083 psi
same,100% Modulus,[3]; [14],1490
same,% Elongation,[3]; [14],380%
same,Tensile (psi),[3]; [14],2875 psi
same,Brittle Point ° C.,[4]; [10],−48.5 °C
same,Brittle Point ° C.,[4]; [11],−50.5 °C
same,Brittle Point ° C.,[4]; [12],−17.0 °C
same,Brittle Point ° C.,[4]; [13],−22 °C
same,Brittle Point ° C.,[4]; [14],−34.5 °C
same,Oven Stability (210° C.) Decomposition Failure,[5]; [10],50 min
same,Oven Stability (210° C.) Initial Color,[5]; [10],Clear
same,Oven Stability (210° C.) Initial Color Failure,[5]; [10],15 min
same,Oven Stability (210° C.) Decomposition Failure,[5]; [11],60 min
same,Oven Stability (210° C.) Initial Color,[5]; [11],Clear
same,Oven Stability (210° C.) Initial Color Failure,[5]; [11],15 min
same,Oven Stability (210° C.) Decomposition Failure,[5]; [12],50 min
same,Oven Stability (210° C.) Initial Color,[5]; [12],Clear
same,Oven Stability (210° C.) Initial Color Failure,[5]; [12],15 min
same,Oven Stability (210° C.) Decomposition Failure,[5]; [13],50 min
same,Oven Stability (210° C.) Initial Color,[5]; [13],Clear
same,Oven Stability (210° C.) Initial Color Failure,[5]; [13],10 min
same,Oven Stability (210° C.) Decomposition Failure,[5]; [14],50 min
same,Oven Stability (210° C.) Initial Color,[5]; [14],Clear
same,Oven Stability (210° C.) Initial Color Failure,[5]; [14],15 min
same,Dynamic Heat Stability,[6]; [10],72 min
same,Dynamic Heat Stability,[6]; [11],54
same,Dynamic Heat Stability,[6]; [12],19 min
same,Dynamic Heat Stability,[6]; [13],7 min
same,Dynamic Heat Stability,[6]; [14],40 min
same,Loop Spew,[7]; [10],None
same,Loop Spew,[7]; [11],None
same,Loop Spew,[7]; [12],None
same,Loop Spew,[7]; [13],None
same,Loop Spew,[7]; [14],None
same,% Volatile Loss,[8]; [10],3.54%
same,% Volatile Loss,[8]; [11],4.58%
same,% Volatile Loss,[8]; [12],1.56%
same,% Volatile Loss,[8]; [13],1.67%
same,% Volatile Loss,[8]; [14],2.73%
same,Absolute YI After 35 kGys Gamma,[9]; [16],12.24
same,Change in YI from Original After 35 kGys Gamma,[9]; [16],5.46
same,Absolute YI After 35 kGys Gamma and Oven Aging (48 hr. at 50° C.),[9]; [17],17.58
same,Change in YI from Original After 35 kGys Gamma and Oven Aging (48 hr. at 50° C.),[9]; [17],10.80
same,Absolute YI Original,[9]; before irradiation,6.78

# From patent publication US20140011930A1, “Bio-Renewable Carboxylic Acid Esters and Mixtures Thereof Useful as Plasticizers” (TEKNOR APEX COMPANY, priority 2012, published 2014)
